Source: US20250144179A1, “PEPTIDE HORMONE TO PREVENT OR TREAT VASOSPASM, BRAIN INJURY OR CEREBRAL EDEMA” (UNIVERSITY OF FLORIDA RESEARCH FOUNDATION, INCORPORATED, priority 2022, published 2025)

What was measured:
Assay type in all cases: in vivo, mouse
eNOS^−/− mice, SAH model [1] = experiment: MCA diameter (vasospasm) after SAH in eNOS knockout mice; details: one week post-SAH
Source text: All animal experiments were approved by IACUC (Institutional Animal Care and Use Committee) and performed in accordance with ARRIVE (Animal Research: Reporting of In Vivo Experiments) guidelines. All animals were 12-15-week-old females and were housed in pathogen-free housing with ad libitum food and water and 12-h light/dark cycling. Wild-type C57B1/6 mice were received from Charles River Labs (Wilmington, Mass.) and eNOS knockout mice were obtained from The Jackson Laboratory (Bar Harbor, Maine). eNOS knockout breeding pairs were genotyped prior to breeding and F1 progeny used for all experiments. The following primers were used for genotyping: eNOS knockout (Nos3^−/−): F-5′-[…]-3′, R-5′-[…]-3′. All animals underwent twice daily monitoring from institutional animal care services staff and/or investigators. […]
Middle cerebral artery diameter were measured as previously reported.^36,37 One week post-SAH, mice were deeply anesthetized with ketamine and xylazine before being serially perfused through the left ventricle with PBS (5 mL), 4% PFA (15 mL), and 20% India ink dissolved in 5% gelatin. […] Brains were imaged and analyzed by an observer blinded to group assignment. The narrowest diameter within the first 2000 μm of the middle cerebral artery (MCA) after the terminal interior carotid artery bifurcation (M1 segment) was measured to assess vasospasm. […]

[2] = test system: murine intracranial aneurysm rupture model; experiment: Intracranial aneurysm rupture model; details: 450 nmol/kg every other day from 3 days before aneurysm induction, vs vehicle
Procedure: (§1) Synthetic adropin^34-76 peptide was supplied from Bachem (Bubendorf, Switzerland) and diluted in 0.1% BSA in saline. 0.1% BSA in saline was used as vehicle control for all experiments. Adropin (450 nmol/kg) or an equivalent volume of vehicle was delivered via intraperitoneal injection 15 minutes post-SAH. For experiments ending at 24 hours post-SAH, an identical dose of adropin/vehicle was given again 12 hours later. For experiments ending 7 days post-SAH, adropin/vehicle was given again on days 1, 3 & 5 post-SAH. In the aneurysm rupture model, adropin was given at a dose of 450 nmol/kg starting 3 days before aneurysm induction (elastase injection). Adropin was given every other day until sacrifice
Cerebral aneurysms were induced as previously described. Briefly, mice were anesthetized with ketamine (100 mg/kg) and xylazine (10 mg/kg) before the left common carotid artery and the right renal artery were ligated with 7-0 silk suture (Ethicon Inc., Somerville, New Jersey). Carotid and renal artery ligations are hereafter referred to as ligations. One week after ligations, mice were anesthetized and 10 μL of 1.0 U/mL porcine pancreatic elastase solution (Worthington Biochemical Corp, Lakewood, New Jersey) diluted in phosphate buffered saline (PBS, Invitrogen, Carlsbad, California) was stereotactically injected into the right basal cistern at 1.2 mm rostral of bregma, 0.7 mm lateral of midline, and 5.3 mm deep to the surface of the brain. A subcutaneous osmotic pump (Alzet, Cupertino, California) placed in the right flank immediately after elastase injection and continually infused angiotensin II (Bachem, Torrence, California) at a dose of 1000 ng/kg/min. Elastase injection and osmotic pump placement are hereafter referred to as aneurysm induction. Following recovery from aneurysm induction, mice were fed a diet of 8% NaCl with 0.12% beta-aminopropionitrile (BAPN; Harlan Laboratories, Indianapolis, Indiana).
Three weeks post-aneurysm induction, mice were deeply anesthetized with ketamine/xylazine. A bilateral anterolateral thoracotomy with transverse sternotomy was made to expose the heart and great vessels. The right atrium was punctured with the tip of a 23 g needle as an outlet before the left ventricle was sequentially perfused with normal saline, 4% paraformaldehyde (PFA), and Coomassie Brilliant Blue dye in a 20% gelatin solution. Brains were carefully removed from the skull and inspected under a dissection microscope for the presence of aneurysms as evidenced by outpouching of cerebral arteries in or connected to the circle of Willis. Aneurysm rupture was identified by the presence of extravasated blood near an identified aneurysm. […]

eNOS^−/− mice, SAH model [3] = experiment: Sensorimotor deficits (corner test) after SAH in eNOS knockout mice
Source text: All animal experiments were approved by IACUC (Institutional Animal Care and Use Committee) and performed in accordance with ARRIVE (Animal Research: Reporting of In Vivo Experiments) guidelines. All animals were 12-15-week-old females and were housed in pathogen-free housing with ad libitum food and water and 12-h light/dark cycling. Wild-type C57B1/6 mice were received from Charles River Labs (Wilmington, Mass.) and eNOS knockout mice were obtained from The Jackson Laboratory (Bar Harbor, Maine). eNOS knockout breeding pairs were genotyped prior to breeding and F1 progeny used for all experiments. The following primers were used for genotyping: eNOS knockout (Nos3^−/−): F-5′-[…]-3′, R-5′-[…]-3′. All animals underwent twice daily monitoring from institutional animal care services staff and/or investigators. Mice were randomized to treatment groups prior to surgical procedures.
as §1, with “In the aneurysm rupture model, adropin was given at a dose of 450 nmol/kg starting 3 days before aneurysm induction (elastase injection). Adropin was given every other day until sacrifice” left out

## adropin (CHSRSADVDSLSESSPNSSPGPCPEKAPPPQKPSHEGSYLLQP) [Synthetic adropin^34-76 peptide from Bachem]
eNOS^−/− mice, SAH model [1]
  vasospasm (MCA diameter): adropin did not prevent vasospasm
[2]
  aneurysm formation: did not significantly reduce aneurysm formation
  aneurysm rupture: did not significantly reduce aneurysm formation (FIG. 9C) or aneurysm rupture
  deficit-free (symptom-free) survival: extended deficit-free survival compared to vehicle
  proportion of aneurysm ruptures that were symptom-producing: less likely to be symptom-producing
eNOS^−/− mice, SAH model [3]
  sensorimotor deficits (corner test turn preference): adropin also had no effect on sensorimotor deficits
